Key:
ΔF508-CFTR [1] = target: T1, ΔF508-CFTR (Homo sapiens, UniProt P13569, DEL508-508); assay: CFTR cell surface levels using HRP-tagged ΔF508-CFTR expressing CFBE cells, intrinsic corrector capacity; assay type: cell-based; parameters: % Activation: concentration or dose not given beside the values; settings: HRP-tagged ΔF508-CFTR expressing CFBE41o- cells, compound alone (intrinsic corrector capacity), 20 hours at 33° C.; for EC50: read-out: EC50
T1 construct: host or cells: CFBE41o-, doxycycline-inducible
In short: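 Surface ΔF508-CFTR was measured as HRP chemiluminescence from an extracellular-loop-4 tag, expressed as percent activity between DMSO and a […] corrector control.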

ΔF508-CFTR [2] = target: T1, ΔF508-CFTR; assay: CFTR cell surface levels using HRP-tagged ΔF508-CFTR expressing CFBE cells, in the presence of a co-corrector; assay type: cell-based; settings: HRP-tagged ΔF508-CFTR CFBE cells, in the presence of 3 μM co-corrector; for EC50: read-out: EC50
In short: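 Chemiluminescent read-out of surface HRP (15 min, dark) after PBS washes. Activity is normalized as 100×(sample−DMSO)/(3 μM co-corrector alone−DMSO).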

T1 sequence (P13569 with tags, fused parts or gaps DEL508-508): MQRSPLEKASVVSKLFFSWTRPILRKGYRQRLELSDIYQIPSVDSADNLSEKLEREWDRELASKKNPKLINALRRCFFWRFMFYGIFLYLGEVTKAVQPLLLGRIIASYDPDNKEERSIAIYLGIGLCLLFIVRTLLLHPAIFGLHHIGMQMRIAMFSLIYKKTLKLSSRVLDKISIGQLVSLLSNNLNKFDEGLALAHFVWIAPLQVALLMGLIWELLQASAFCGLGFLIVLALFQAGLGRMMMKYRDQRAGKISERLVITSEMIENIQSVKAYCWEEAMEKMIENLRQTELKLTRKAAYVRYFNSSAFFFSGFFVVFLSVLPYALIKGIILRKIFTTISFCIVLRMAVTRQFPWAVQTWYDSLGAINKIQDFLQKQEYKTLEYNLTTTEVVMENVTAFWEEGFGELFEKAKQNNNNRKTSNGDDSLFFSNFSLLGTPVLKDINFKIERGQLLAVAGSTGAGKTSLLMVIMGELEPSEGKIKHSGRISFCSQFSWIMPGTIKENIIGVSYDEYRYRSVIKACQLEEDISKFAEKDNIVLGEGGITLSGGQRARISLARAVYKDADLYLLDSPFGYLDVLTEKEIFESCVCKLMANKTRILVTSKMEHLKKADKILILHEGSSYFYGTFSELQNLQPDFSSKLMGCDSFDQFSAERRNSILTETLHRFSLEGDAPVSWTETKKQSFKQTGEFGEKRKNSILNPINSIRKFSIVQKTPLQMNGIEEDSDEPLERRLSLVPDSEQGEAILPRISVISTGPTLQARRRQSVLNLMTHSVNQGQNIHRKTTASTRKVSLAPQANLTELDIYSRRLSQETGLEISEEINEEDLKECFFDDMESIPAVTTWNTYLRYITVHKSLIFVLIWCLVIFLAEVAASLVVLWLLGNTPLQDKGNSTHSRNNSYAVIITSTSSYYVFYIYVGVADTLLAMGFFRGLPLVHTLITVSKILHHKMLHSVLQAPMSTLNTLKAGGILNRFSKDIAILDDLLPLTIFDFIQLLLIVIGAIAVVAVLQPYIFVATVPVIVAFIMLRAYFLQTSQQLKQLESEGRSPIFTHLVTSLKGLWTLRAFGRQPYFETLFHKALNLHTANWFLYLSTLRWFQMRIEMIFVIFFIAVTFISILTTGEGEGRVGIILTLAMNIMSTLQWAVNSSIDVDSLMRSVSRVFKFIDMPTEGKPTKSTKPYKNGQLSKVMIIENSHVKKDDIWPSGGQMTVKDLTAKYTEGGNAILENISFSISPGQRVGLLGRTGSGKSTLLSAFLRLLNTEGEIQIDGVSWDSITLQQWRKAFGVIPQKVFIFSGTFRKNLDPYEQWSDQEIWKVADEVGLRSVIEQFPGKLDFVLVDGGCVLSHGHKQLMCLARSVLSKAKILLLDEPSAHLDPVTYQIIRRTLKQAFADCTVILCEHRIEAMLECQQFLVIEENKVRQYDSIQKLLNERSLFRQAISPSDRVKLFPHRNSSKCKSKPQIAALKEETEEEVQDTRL

Row | Structure (SMILES) | % Activation (ΔF508-CFTR [1]) [%] | EC50 (ΔF508-CFTR [1]) [nM] | % Activation (ΔF508-CFTR [2]) [%] | EC50 (ΔF508-CFTR [2]) [nM]
1 | CCS(=O)(=O)NC(=O)c1cc(-c2ccc(N3CCOCC3)cc2)c2c(C)nn(-c3ccc(OC(F)(F)F)cc3)c2n1 [Compound 70, N-(ethanesulfonyl)-3-methyl-4-[4-(morpholin-4-yl)phenyl]-1-[4-(trifluoromethoxy)phenyl]-1H-pyrazolo[3,4-b]pyridine-6-carboxamide] | 167.8 | 621 | 342.85 | 410
2 | COCCS(=O)(=O)NC(=O)c1cc(-c2ccc(N3CCOCC3)cc2)c2c(C(C)C)nn(C3CCOC3)c2n1 (stereo not shown) [Compound 232, N-(2-methoxyethanesulfonyl)-4-[4-(morpholin-4-yl)phenyl]-1-(oxolan-3-yl)-3-(propan-2-yl)-1H-pyrazolo[3,4-b]pyridine-6-carboxamide] | 71.64 | 1680 | 199.75 | 1730
3 | COCCS(=O)(=O)NC(=O)c1cc(N2CCN(C(C)C)CC2)c2c(C3CCC3)nn(-c3ccccc3)c2n1 [Compound 271, 3-cyclobutyl-N-(2-methoxyethanesulfonyl)-1-phenyl-4-[4-(propan-2-yl)piperazin-1-yl]-1H-pyrazolo[3,4-b]pyridine-6-carboxamide] | 63.905 | 1950 | 260.47 | 1020
4 | CCS(=O)(=O)NC(=O)c1cc(N2CCC(CN3CCCC3)CC2)c2c(C3CCC3)nn(-c3ccccc3)c2n1 [Compound 463, 3-cyclobutyl-N-(ethanesulfonyl)-1-phenyl-4-{4-[(pyrrolidin-1-yl)methyl]piperidin-1-yl}-1H-pyrazolo[3,4-b]pyridine-6-carboxamide] | 263.9 | 419 | 490.6 | 194
5 | CC(C)c1nn(-c2ccc(F)cc2)c2nc(C(=O)NS(C)(=O)=O)cc(OCCCN3CCOCC3)c12 [Compound 292, 1-(4-fluorophenyl)-N-(methanesulfonyl)-4-[3-(morpholin-4-yl)propoxy]-3-(propan-2-yl)-1H-pyrazolo[3,4-b]pyridine-6-carboxamide] | 217.9 | 1060 | 422.55 | 565
6 | COc1ccc(-n2nc(C(C)C)c3c(-c4ccc(N(C)C)cc4)cc(C(=O)NS(C)(=O)=O)nc32)cn1 [Compound 17, 4-[4-(dimethylamino)phenyl]-N-(methanesulfonyl)-1-(6-methoxypyridin-3-yl)-3-(propan-2-yl)-1H-pyrazolo[3,4-b]pyridine-6-carboxamide] | 140.75 | 1230 | 320 | 1120
7 | CS(=O)(=O)NC(=O)c1cc(OCC2CCCO2)c2c(C3CCC3)nn(-c3ccccc3)c2n1 (stereo not shown) [Compound 283, 3-cyclobutyl-N-(methanesulfonyl)-4-[(oxolan-2-yl)methoxy]-1-phenyl-1H-pyrazolo[3,4-b]pyridine-6-carboxamide] | 141.2 | 477 | 326.85 | 265
8 | COC1CCN(c2cc(C(=O)NS(=O)(=O)CCNC(=O)c3ccccc3C(=O)O)nc3c2c(C2CCC2)nn3-c2ccccc2)CC1 [Compound 174, 2-[(2-{[3-cyclobutyl-4-(4-methoxypiperidin-1-yl)-1-phenyl-1H-pyrazolo[3,4-b]pyridine-6-carbonyl]sulfamoyl}ethyl)carbamoyl]benzoic acid] | 347.9 | 754 | 545 | 468
9 | CS(=O)(=O)NC(=O)c1cc(C2CCN(C3CCC(F)(F)CC3)CC2)c2c(C3CCC3)nn(-c3ccc(F)cc3)c2n1 [Compound 593, 3-cyclobutyl-4-[1-(4,4-difluorocyclohexyl)piperidin-4-yl]-1-(4-fluorophenyl)-N-(methanesulfonyl)-1H-pyrazolo[3,4-b]pyridine-6-carboxamide] | 157.8 | 190 | 366.7 | 194
10 | CS(=O)(=O)NC(=O)c1cc(C2CCN(CC3CCOCC3)CC2)c2c(C3CCC3)nn(-c3ccc(F)cc3)c2n1 [Compound 600, 3-cyclobutyl-1-(4-fluorophenyl)-N-(methanesulfonyl)-4-{1-[(oxan-4-yl)methyl]piperidin-4-yl}-1H-pyrazolo[3,4-b]pyridine-6-carboxamide] | 126.5 | 1210 | 326.1 | 1620
11 | CCS(=O)(=O)NC(=O)c1cc(-c2ccc(N3CCOCC3)cc2)c2c(C)nn(-c3cccc(F)c3)c2n1 [Compound 68, N-(ethanesulfonyl)-1-(3-fluorophenyl)-3-methyl-4-[4-(morpholin-4-yl)phenyl]-1H-pyrazolo[3,4-b]pyridine-6-carboxamide] | 253.3 | 1080 | 456.6 | 847
12 | Cc1cccc(-n2nc(C3CCC3)c3c(N4CCC(N5CCOCC5)CC4)cc(C(=O)NS(C)(=O)=O)nc32)c1 [Compound 509, 3-cyclobutyl-N-(methanesulfonyl)-1-(3-methylphenyl)-4-[4-(morpholin-4-yl)piperidin-1-yl]-1H-pyrazolo[3,4-b]pyridine-6-carboxamide] | 333.2 | 327 | 527.9 | 118
13 | Cc1nn(-c2ccc(OC(F)(F)F)cc2)c2nc(C(=O)NS(C)(=O)=O)cc(-c3ccc(N4CCOCC4)cc3)c12 [Compound 69, N-(methanesulfonyl)-3-methyl-4-[4-(morpholin-4-yl)phenyl]-1-[4-(trifluoromethoxy)phenyl]-1H-pyrazolo[3,4-b]pyridine-6-carboxamide] | 182.08 | 632 | 362.03 | 404
14 | CC(c1ccc(-c2cc(C(=O)NS(=O)(=O)N(C)C)nc3c2c(C2CCC2)nn3C2CCCCC2)cc1)N1CCOCC1 (stereo not shown) [Compound 543, 3-cyclobutyl-1-cyclohexyl-N-(dimethylsulfamoyl)-4-{4-[1-(morpholin-4-yl)ethyl]phenyl}-1H-pyrazolo[3,4-b]pyridine-6-carboxamide] | 115.7 | 238 | 336.1 | 139
15 | CC(C)c1nn(-c2ccc(F)cc2)c2nc(C(=O)NS(C)(=O)=O)cc(N3CC4(CCCOC4)C3)c12 [Compound 179, 1-(4-fluorophenyl)-N-(methanesulfonyl)-4-(6-oxa-2-azaspiro[3.5]nonan-2-yl)-3-(propan-2-yl)-1H-pyrazolo[3,4-b]pyridine-6-carboxamide] | 89.165 | 879 | 248.85 | 406
16 | CC(C)N1CCN(c2ccc(-c3cc(C(=O)NS(=O)(=O)N(C)C)nc4c3c(C3CCC3)nn4C3CCCCC3)cn2)CC1 [Compound 542, 3-cyclobutyl-1-cyclohexyl-N-(dimethylsulfamoyl)-4-{6-[4-(propan-2-yl)piperazin-1-yl]pyridin-3-yl}-1H-pyrazolo[3,4-b]pyridine-6-carboxamide] | 153.2 | 267 | 320.3 | 216

Reference: patent US10259810B2, “N-sulfonylated pyrazolo[3,4-b]pyridin-6-carboxamides and method of use” (AbbVie S.à.r.l., priority 2015, dated 2019)
